In patent US20220047548A1, “SYNERGISTIC COMPOSITIONS COMPRISING (R)-2-(2-OXOPYRROLIDIN-1-YL)BUTANAMIDE AND (S)-2-(2-e OXOPYRROLEDIN-1-YL)BUTANAMEDE IN A NON-RACEMIC RATIO” (Metys Pharmaceuticals AG, priority 2018, published 2022):
Marks after values point to notes of the source that are not given here.

Key:
[1] = test system: electroshock-induced amnesia; conditions: sub-cutaneous injection; rat; cited from earlier work
[2] = test system: PTZ-induced kindling in mice; assay: PTZ-induced kindling test in mice (tonic and clonic convulsions kindled by once-daily pentylenetetrazole); format: in vivo, mice (adult male CD1); conditions: for antiepileptic effect in comparison experiment (in words): Tab. 2 comparison
Protocol: Adult male CD1 mice (Envigo, Italy 20-25 g weight at arrival), were used. The cages were brought into the experimental room the day before the experiment, for acclimatization purposes. Each treatment group consisted of 15 mice. Mice were fed a standard laboratory diet. Food and water were freely available. Room temperature and relative humidity were constantly kept at 22±2° C. and 55±15%, respectively, and a 12-hour light and 12-hour darkness cycles maintained.
Levetiracetam (batch P102-14050 supplied by Astatech), etiracetam (supplied by Shaanxi Swiden Biotech Co., Ltd. Catalog number E932970), or mixtures of 1 part levetiracetam and 1 part etiracetam (1-to-3 R-to-S-etiracetam), or of 1 part levetiracetam and 0.5 part etiracetam (1-to-5 R-to-S-etiracetam), were dissolved in 1% carboxymethylcellulose (CMC) solution at a formulation strength of 55 mg/mL and orally administered once per day. Compounds were administered every day, from day 1 to day 11, 60 min before PTZ (55 mg/kg i.p.). PTZ was dissolved in saline; following i.p. injection, seizures developed in vehicle-treated mice within about 20 minutes.
The test was performed according to Gower et al. (Eur. J. Pharmacol. 222, 1992, 193-203). Separate groups of male mice were administered orally once daily for 11 consecutive days with levetiracetam (10, 30, or 60 mg/kg p.o.); etiracetam (30 mg/kg p.o.); or 1-to-3 R-to-S-etiracetam (30 mg/kg p.o.); or 1-to-5 R-to-S-etiracetam, (30 mg/kg p.o.); or oral vehicle, 60 min prior to administration of PTZ (pentylenetetrazole, 55.0 mg/kg i.p.). Immediately after the PTZ injection, the mice were placed in individual cages and observed for tonic and clonic seizures.
A chi-square test was used to verify significance between two means of behavioral results. Data were analyzed by the Social Science Statistics Program. P values ≤0.05 were considered significant (link https://www.socscistatistics.com/tests/chisquare/default2.aspx).

[3] = Table 2 comparison, 30 mg/kg p.o. once daily 60 min before PTZ 55 mg/kg i.p., Day 1
[4] = Table 2 comparison, 30 mg/kg p.o. once daily 60 min before PTZ 55 mg/kg i.p., Day 2
[5] = Table 2 comparison, 30 mg/kg p.o. once daily 60 min before PTZ 55 mg/kg i.p., Day 3
[6] = Table 2 comparison, 30 mg/kg p.o. once daily 60 min before PTZ 55 mg/kg i.p., Day 4
[7] = Table 2 comparison, 30 mg/kg p.o. once daily 60 min before PTZ 55 mg/kg i.p., Day 5
[8] = Table 2 comparison, 30 mg/kg p.o. once daily 60 min before PTZ 55 mg/kg i.p., Day 6
[9] = Table 2 comparison, 30 mg/kg p.o. once daily 60 min before PTZ 55 mg/kg i.p., Day 7
[10] = Table 2 comparison, 30 mg/kg p.o. once daily 60 min before PTZ 55 mg/kg i.p., Day 8
[11] = Table 2 comparison, 30 mg/kg p.o. once daily 60 min before PTZ 55 mg/kg i.p., Day 9
[12] = Table 2 comparison, 30 mg/kg p.o. once daily 60 min before PTZ 55 mg/kg i.p., Day 10
[13] = Table 2 comparison, 30 mg/kg p.o. once daily 60 min before PTZ 55 mg/kg i.p., Day 11

CC[C@H](C(N)=O)N1CCCC1=O [R-etiracetam, (R)-2-(2-oxopyrrolidin-1-yl)butanamide]
potency relative to racemic etiracetam [1]: 10 fold

CC[C@@H](C(N)=O)N1CCCC1=O [levetiracetam, (S)-2-(2-oxopyrrolidin-1-yl)butanamide]
effect on PTZ-induced kindling (in words) ([2]; 10 mg/kg p.o., at the end of the treatment (day 11)): all mice showed tonic or clonic convulsions
antiepileptic effect in comparison experiment (in words) ([2]; 30 mg/kg p.o.): moderately effective
effect on PTZ-induced kindling (in words) ([2]; 30 mg/kg p.o., dose-response experiment (Tab. 1)): intermediate reduction of the effect
incidence of clonic convulsion in the first 6 days ([2]; 60 mg/kg p.o. once daily, days 1-6): ≤ 20%
effect on PTZ-induced kindling vs vehicle treatment group (in words) ([2]; 60 mg/kg p.o., eighth to eleventh day of treatment): statistically significant difference in the proportion of mice exhibiting seizures
percentage of mice per group with clonic convulsions ([2]; Table 1, 10 mg/kg p.o. once daily 60 min before PTZ 55 mg/kg i.p., Day 1): 6.6%
percentage of mice per group with clonic convulsions ([2]; Table 1, 10 mg/kg p.o. once daily 60 min before PTZ 55 mg/kg i.p., Day 2): 6.6%
percentage of mice per group with clonic convulsions ([2]; Table 1, 10 mg/kg p.o. once daily 60 min before PTZ 55 mg/kg i.p., Day 3): 20.0%
percentage of mice per group with clonic convulsions ([2]; Table 1, 10 mg/kg p.o. once daily 60 min before PTZ 55 mg/kg i.p., Day 4): 26.6%
percentage of mice per group with clonic convulsions ([2]; Table 1, 10 mg/kg p.o. once daily 60 min before PTZ 55 mg/kg i.p., Day 5): 26.6%
percentage of mice per group with clonic convulsions ([2]; Table 1, 10 mg/kg p.o. once daily 60 min before PTZ 55 mg/kg i.p., Day 6): 53.0%
percentage of mice per group with clonic convulsions ([2]; Table 1, 10 mg/kg p.o. once daily 60 min before PTZ 55 mg/kg i.p., Day 7): 53.3%
percentage of mice per group with clonic convulsions ([2]; Table 1, 10 mg/kg p.o. once daily 60 min before PTZ 55 mg/kg i.p., Day 8): 73.3%
percentage of mice per group with clonic convulsions ([2]; Table 1, 10 mg/kg p.o. once daily 60 min before PTZ 55 mg/kg i.p., Day 9): 86.6%
percentage of mice per group with clonic convulsions ([2]; Table 1, 10 mg/kg p.o. once daily 60 min before PTZ 55 mg/kg i.p., Day 10): 86.6%
percentage of mice per group with clonic convulsions ([2]; Table 1, 10 mg/kg p.o. once daily 60 min before PTZ 55 mg/kg i.p., Day 11): 100%
percentage of mice per group with clonic convulsions ([2]; Table 1, 30 mg/kg p.o. once daily 60 min before PTZ 55 mg/kg i.p., Day 1): 0%
percentage of mice per group with clonic convulsions ([2]; Table 1, 30 mg/kg p.o. once daily 60 min before PTZ 55 mg/kg i.p., Day 2): 6.6%
percentage of mice per group with clonic convulsions ([2]; Table 1, 30 mg/kg p.o. once daily 60 min before PTZ 55 mg/kg i.p., Day 3): 13.3%
percentage of mice per group with clonic convulsions ([2]; Table 1, 30 mg/kg p.o. once daily 60 min before PTZ 55 mg/kg i.p., Day 4): 20.0%
percentage of mice per group with clonic convulsions ([2]; Table 1, 30 mg/kg p.o. once daily 60 min before PTZ 55 mg/kg i.p., Day 5): 20.0%
percentage of mice per group with clonic convulsions ([2]; Table 1, 30 mg/kg p.o. once daily 60 min before PTZ 55 mg/kg i.p., Day 6): 26.6%
percentage of mice per group with clonic convulsions ([2]; Table 1, 30 mg/kg p.o. once daily 60 min before PTZ 55 mg/kg i.p., Day 7): 33.3%
percentage of mice per group with clonic convulsions ([2]; Table 1, 30 mg/kg p.o. once daily 60 min before PTZ 55 mg/kg i.p., Day 8): 46.6%
percentage of mice per group with clonic convulsions ([2]; Table 1, 30 mg/kg p.o. once daily 60 min before PTZ 55 mg/kg i.p., Day 9): 66.6%
percentage of mice per group with clonic convulsions ([2]; Table 1, 30 mg/kg p.o. once daily 60 min before PTZ 55 mg/kg i.p., Day 10): 66.6%
percentage of mice per group with clonic convulsions ([2]; Table 1, 30 mg/kg p.o. once daily 60 min before PTZ 55 mg/kg i.p., Day 11): 73.3%
percentage of mice per group with clonic convulsions ([2]; Table 1, 60 mg/kg p.o. once daily 60 min before PTZ 55 mg/kg i.p., Day 1): 0%
percentage of mice per group with clonic convulsions ([2]; Table 1, 60 mg/kg p.o. once daily 60 min before PTZ 55 mg/kg i.p., Day 2): 0%
percentage of mice per group with clonic convulsions ([2]; Table 1, 60 mg/kg p.o. once daily 60 min before PTZ 55 mg/kg i.p., Day 3): 6.6%
percentage of mice per group with clonic convulsions ([2]; Table 1, 60 mg/kg p.o. once daily 60 min before PTZ 55 mg/kg i.p., Day 4): 20.0%
percentage of mice per group with clonic convulsions ([2]; Table 1, 60 mg/kg p.o. once daily 60 min before PTZ 55 mg/kg i.p., Day 5): 20.0%
percentage of mice per group with clonic convulsions ([2]; Table 1, 60 mg/kg p.o. once daily 60 min before PTZ 55 mg/kg i.p., Day 6): 20.0%
percentage of mice per group with clonic convulsions ([2]; Table 1, 60 mg/kg p.o. once daily 60 min before PTZ 55 mg/kg i.p., Day 7): 26.6%
percentage of mice per group with clonic convulsions ([2]; Table 1, 60 mg/kg p.o. once daily 60 min before PTZ 55 mg/kg i.p., Day 8): 26.6^# %
percentage of mice per group with clonic convulsions ([2]; Table 1, 60 mg/kg p.o. once daily 60 min before PTZ 55 mg/kg i.p., Day 9): 33.3^# %
percentage of mice per group with clonic convulsions ([2]; Table 1, 60 mg/kg p.o. once daily 60 min before PTZ 55 mg/kg i.p., Day 10): 33.3^# %
percentage of mice per group with clonic convulsions ([2]; Table 1, 60 mg/kg p.o. once daily 60 min before PTZ 55 mg/kg i.p., Day 11): 40%
percentage of mice per group with clonic convulsions [2, 3]: 0%
percentage of mice per group with clonic convulsions [2, 4]: 0%
percentage of mice per group with clonic convulsions [2, 5]: 6.6%
percentage of mice per group with clonic convulsions [2, 6]: 13.3%
percentage of mice per group with clonic convulsions [2, 7]: 20.0%
percentage of mice per group with clonic convulsions [2, 8]: 26.6%
percentage of mice per group with clonic convulsions [2, 9]: 33.3%
percentage of mice per group with clonic convulsions [2, 10]: 46.6%
percentage of mice per group with clonic convulsions [2, 11]: 66.6%
percentage of mice per group with clonic convulsions [2, 12]: 73.3%
percentage of mice per group with clonic convulsions [2, 13]: 73.3%

CCC(C(N)=O)N1CCCC1=O (racemic) [etiracetam, 2-(2-oxopyrrolidin-1-yl)butanamide]
antiepileptic effect in comparison experiment (in words) ([2]; 30 mg/kg p.o.): ineffective
percentage of mice per group with clonic convulsions [2, 3]: 0%
percentage of mice per group with clonic convulsions [2, 4]: 6.6%
percentage of mice per group with clonic convulsions [2, 5]: 13.3%
percentage of mice per group with clonic convulsions [2, 6]: 26.6%
percentage of mice per group with clonic convulsions [2, 7]: 26.6%
percentage of mice per group with clonic convulsions [2, 8]: 46.6%
percentage of mice per group with clonic convulsions [2, 9]: 53.3%
percentage of mice per group with clonic convulsions [2, 10]: 66.6%
percentage of mice per group with clonic convulsions [2, 11]: 86.6%
percentage of mice per group with clonic convulsions [2, 12]: 93.3%
percentage of mice per group with clonic convulsions [2, 13]: 100%
